Results: US9662329B2, “Use of survivin antagonists in polyomavirus-related disease” (University of Pittsburgh—Of the Commonwealth System of …, priority 2012, dated 2017)

Experiments:
MKL-1 cells [1] = assay: Immunoblotting for cPARP, cCaspase 3 and LC3; type: cell-based, human; details: 100 nM, 48 hours
[2] = system: human MKL-1 MCC xenografts
Protocol: Compounds were dissolved in sterile 0.9% saline solution for administration to animals.
Six-week-old female triple immune-deficient NSG (Nod-SCID gamma) mice (Jackson Laboratory) were maintained in a specific pathogen-free environment.
MCC cells were checked for viability >90% by trypan blue staining, resuspended in PBS (2×10^7 cells in 100 μl) and inoculated subcutaneously into the right flank of mice.
All treatments were delivered for three consecutive weeks. […] YM-155 (2 mg/kg) was given intraperitoneally on five consecutive days, followed by a two-day treatment free interval.
Two-tailed paired Student's t test was used to analyze statistical differences in qRT-PCR results. Mouse survival curves were estimated using the Kaplan-Meier product-limit method and were compared using the log-rank test (GraphPad Software, La Jolla, Calif.). A piecewise linear hierarchical Bayesian model (Zhao et al., Bayesian hierarchical changepoint methods in modeling the tumor growth profiles in xenograft experiments. Clinical Cancer Res 17, 1057 (Mar. 1, 2011)) was used to characterize differences in tumor volumes and growth between treatments.
Cells of Merkel cell polyomavirus (+) carcinoma cell lines MKL-1, MS-1, WaGa, and MKL-2 were checked for viability >90% by trypan blue staining, resuspended in PBS (2×10^7 cells in 100 μl) and inoculated subcutaneously into the right flank of mice.
YM-155 was given intraperitoneally on five consecutive days, followed by a two-day treatment free interval. For YM155 this treatment continued for three weeks or until mice were euthanized. Mice were euthanized upon showing a tumor having a diameter of 20 mm, or upon a showing of significant distress (>20% weight loss or when they became moribund). Caliper measurements of the longest perpendicular tumor diameters were performed every other day and tumor volumes were calculated using the formula: (width)^2×(length/2). Survival was defined as time from the first day of treatment until death/sacrifice.

WaGa = assay: Cell Titer Glo dose-response study; type: cell-based, human; details: Homo sapiens, read-out: EC50 concentrations for MCC cell lines, WaGa
Source text: (§1) Seven Merkel cell carcinoma cell lines: MKL-1, MKL-2, MS-1, UISO, MCC13, MCC26 and WaGa (kind gift of Jurgen Becker (Houben et al., Merkel cell polyomavirus-infected Merkel cell carcinoma cells require expression of viral T antigens. J Virol 84, 7064 (July, 2010); Ronan et al., Merkel cell carcinoma: in vitro and in vivo characteristics of a new cell line. J Am Acad Dermatol 29, 715 (November, 1993); Rosen et al., Establishment and characterization of a neuroendocrine skin carcinoma cell line. Lab Invest 56, 302 (March, 1987)); NCI-H69 small cell lung cancer cell line (ATCC); 293 human embryonic kidney cells (ATCC); U2OS osteosarcoma cell line (kind gift of Ole Gjoerup); BJhTERT immortalized foreskin fibroblast cell line (kind gift of Ole Gjoerup); and BJ primary foreskin fibroblasts (ATCC) were used to screen and evaluate the small molecules examined in this study (Houben et al., J Virol 84, 7064 (July, 2010); Ronan et al., J Am Acad Dermatol 29, 715 (November, 1993); Rosen et al., Lab Invest 56, 302 (March, 1987)). The Merkel cell lines and NCI-H69 were grown in RPMI 1640 supplemented with 10% fetal calf serum, penicillin and streptomycin at 37° C. in humidified air containing 5% CO2. The remaining cell lines were grown in DMEM supplemented with 10% fetal calf serum.
(§2) For EC50 measurements, dose-response curves were established for 17 drugs obtained individually in bulk stocks. Iodoacetamide (I1149), sanguarine chloride (S5890), NSC95397 (N1786), chelerythrine chloride (C2932), calmidazolium chloride (C3930), tetraethylthiuram disulfide (T1132), bay 11-7085 (B5681), quinacrine dihydro chloride (Q3251), ellipticine (E3380), amsacrine hydrochloride (A9809) and nutlin-3 (N6287) were purchased from Sigma Aldrich, USA.
(§3) Compounds that met the selection criteria <10% cell survival were purchased or obtained in bulk from NCI/NIH Developmental Therapeutics Program. Serial drug dilutions from 10^−4 M to 10^−9 M were used on MCC and non-MCC cell lines. Cells were seeded into 384-well plates at 6000 cells in 50 μl of medium per well. After 24 hours, 25 μl of 3× drugs were added at increasing concentration to each well. Cell viability was then measured using Cell Titer Glo (Promega) kit following manufacturer's instructions as described previously. Each drug concentration was tested in triplicate for each cell line and experiments were repeated twice. EC50 doses for the drugs were calculated using a four parameter logistic equation (GraphPad Prism).

MKL-2 = assay: Cell Titer Glo dose-response study; type: cell-based, human; details: Homo sapiens, read-out: EC50 concentrations for MCC cell lines, MKL-2
Source text: as §1, §2, §3

MS-1 = assay: Cell Titer Glo dose-response study; type: cell-based, human; details: Homo sapiens, MS-1, read-out: EC50 concentrations for MCC cell lines, MS-1
Source text: as §1, §2, §3

UISO = assay: Cell Titer Glo dose-response study; type: cell-based, human; details: Homo sapiens, read-out: EC50 concentrations for MCC cell lines, UISO
Source text: as §1, §2, §3

MKL-1 = assay: Cell Titer Glo dose-response study; type: cell-based, human; details: Homo sapiens, MKL-1, read-out: EC50 concentrations for MCC cell lines, MKL-1
Source text: as §1, §2, §3

MCC cell lines = assay: cells; details: Homo sapiens, read-out: EC50, active in vitro at low doses
Protocol: as §3, with “Serial” for “Compounds that met the selection criteria <10% cell survival were purchased or obtained in bulk from NCI/NIH Developmental Therapeutics Program. Serial”

MKL-1 cells [3] = assay: MKL-1 cytotoxicity screen (Cell Titer Glo); type: cell-based, human; details: screened at 10^-5 M; 48 hours; cut-off <10% cell survival
Source text: A total of 1,360 compounds were used in the initial screening survey: 1,280 compounds from LOPAC1280 library (Sigma Aldrich, accessed through University of Pittsburgh Drug Discovery Institute), 89 compounds from NCI's Approved Oncology Drug Set II (from The NCI/DTP Open Chemical Repository, http://dtp.cancer.gov), 6 LT ATPase inhibitors (MAL2-11B, MAL3-101, MAL2-51, DMT3084, bithionol and hexachlorophene (Wright et al., Inhibition of Simian Virus 40 replication by targeting the molecular chaperone function and ATPase activity of T antigen. Virus Res 141, 71 (April, 2009); Seguin et al., High-Throughput Screening Identifies a Bisphenol Inhibitor of SV40 Large T Antigen ATPase Activity. […] NCI Approved Oncology Drug Set II, SV40 LT ATPase inhibitors and MDM2 inhibitors were reconstituted as recommended by supplier. […] Reconstituted compounds were diluted in cell culture media to obtain a 100× stock concentration prior to addition to cells. Doxorubicin (positive control) was obtained from Sigma-Aldrich and DMSO (negative control) was obtained from Fisher Bioreagents.
MKL-1 cells were seeded at a density of 6000 cells in 50 μl of medium per well (120 cells/μl) in opaque polypropylene 384-well microplates (#781080, Greiner Bio-One, Germany). Cells were incubated at 37° C. in humidified air containing 5% CO2 for 24 hours. Thereafter, 25 μl of medium containing 3× drug per well was added to the plates, which were incubated for an additional 48 hours. Cell viability was measured using Cell Titer Glo (Promega) following manufacturer's instructions.
The LOPAC1280 library was screened at a final concentration of 10 μM for each compound and the NCI library was screened at a final concentration of 1 μM for each compound.
Cell Titer Glo assays were performed in duplicate using 384 well plates, each containing 24 wells with 1% DMSO (negative control) and 32 wells with 200 μM doxorubicin (positive control). Screening results were evaluated on the basis of percentage cell survival normalized to the DMSO control (100%). Positive candidates were identified using a cut-off value of <10% cell survival.

MKL-1 cells [4] = assay: Cell cycle analysis (PI and BrdU staining); type: cell-based, human; details: 12 h, YM155 100 nM, camptothecin 1 μM
Protocol: MKL-1 cells were treated with Accutase (Millipore) to break clumps and then resuspended in fresh medium containing drug and treated for 12 hours. Three hours before harvest 10 μM Bromodeoxyuridine (BrdU) was added. Cells were then harvested and fixed in chilled 70% ethanol and left overnight. The next day cells were washed, resuspended in 200 μl of 2M HCl/Triton X (1%) and incubated for 30 mins at room temperature. Cells were then centrifuged at 2000 rpm for 10 mins and neutralized in 200 μl of 0.1M sodium tetraborate, pH 8.5 solution. Cells were then washed, suspended in 20 μl of PBS containing 0.5% tween20, 1% donkey serum and 2ul of anti-BrdU antibody (1:10 diution, BD Biosciences) and incubated overnight at 4° C. Cells were then washed and incubated with secondary antibody-anti mouse Alexa488 (1:1000) for 1 hour at room temperature. Cells were finally washed, suspended in PBS containing 100 μg/ml of RNase A, 50 μg/ml of PI (propidium iodide) and 0.05% Triton X and incubated for 30 mins at 37° C. in the dark. The cells were then subjected to FACS using the accuri C6 flow cytometer (UPCI shared resources).

[5] = Example 2, 1 mg/kg for three weeks
[6] = three weeks treatment, bortezomib 1 mg/kg twice weekly, YM155 2 mg/kg 5 times weekly

In the case of `CC(C)C[C@H](NC(=O)[C@H](Cc1ccccc1)NC(=O)c1cnccn1)B(O)O` [Bortezomib], the “apoptosis measured by caspase 3 and PARP cleavage” value (MKL-1 cells [1]) is reported as “activated PARP and caspase cleavage”, the “survival compared to saline” value [2, 5] is reported as “survived as long as those receiving saline” and the “time after treatment began at which the last animal died” value [2, 5] is reported as “approximately one month”. For the same compound, the “tolerability / adverse effects in mice” value ([2]; bortezomib 1 mg/kg twice weekly, YM155 2 mg/kg 5 times weekly) was “associated with mouse lethargy and weight loss”, the “mice dying during treatment (up to day 19)” value [2, 6] was 67% and the “xenograft tumor growth / progression during treatment” value [2, 6] was “did not significantly affect MCC tumor progression or volume”. The EC50 (WaGa) was 1 nM, the EC50 (MKL-2) was 5 nM and the EC50 (MS-1) was 2 nM. The EC50 (UISO) was 3 nM, the EC50 (MKL-1) was 13 nM and the EC50 (MCC cell lines) was 1.3 to 13.2 nM.

With `CO[C@H]1C[C@@H]2CC[C@@H](C)[C@@](O)(O2)C(=O)C(=O)N2CCCC[C@H]2C(=O)O[C@H]([C@H](C)C[C@@H]2CC[C@@H](O)[C@H](OC)C2)CC(=O)[C@H](C)/C=C(\C)[C@@H](O)[C@@H](OC)C(=O)[C@H](C)C[C@H](C)/C=C/C=C/C=C/1C` [rapamycin] the “activity in screen (>90% inhibition of MKL-1 cell growth)” value (MKL-1 cells [3]) was “not active”.

`CO[C@H]1C[C@@H]2CC[C@@H](C)[C@@](O)(O2)C(=O)C(=O)N2CCCC[C@H]2C(=O)O[C@H]([C@H](C)C[C@@H]2CC[C@@H](OCCO)[C@H](OC)C2)CC(=O)[C@H](C)/C=C(\C)[C@@H](O)[C@@H](OC)C(=O)[C@H](C)C[C@H](C)/C=C/C=C/C=C/1C` [everolimus] was tested, and the “activity in screen (>90% inhibition of MKL-1 cell growth)” value (MKL-1 cells [3]) was “not active”.

For `CC[C@@]1(O)C(=O)OCc2c1cc1n(c2=O)Cc2cc3ccccc3nc2-1` [camptothecin], the BrdU incorporation (MKL-1 cells [4]) was “accumulation of BrdU-positive cells in G1 and G2”.

In the case of `COc1ccc(C2=N[C@@H](c3ccc(Cl)cc3)[C@@H](c3ccc(Cl)cc3)N2C(=O)N2CCNC(=O)C2)c(OC(C)C)c1` [nutlin-3], the “activity in screen (>90% inhibition of MKL-1 cell growth)” value (MKL-1 cells [3]) is reported as “not active”.

With `NC(=O)c1ncn([C@@H]2O[C@H](CO)[C@@H](O)[C@H]2O)n1` [ribavirin] the “activity in screen (>90% inhibition of MKL-1 cell growth)” value (MKL-1 cells [3]) was “not active”.
